Regarding `CCCc1nn(-c2ccc(C(F)(F)F)cn2)cc1CCCCOc1ccc(CC(=O)O)cc1`, the melting point (in general, the temperature of the solid-liquid transition) was in the range of 121 to 122 °C.

In the case of `Cc1cc(C(F)(F)F)nn1CC(=O)N1CCC(c2nc(C3=NOC(c4ccccc4Cl)C3)cs2)CC1` (stereo not given), the melting point lay within 115 to 122 °C.

As for `CC(=O)N(N=Nc1cc(C(F)(F)F)ccc1C#N)c1cc(C(F)(F)F)ccc1C#N`, the melting point fell in the range of 111 to 112 °C.

On to `Cn1nc(N)nc1NCCCOc1cccc2c(N3CCCCC3)nccc12`, for which the melting point was 173 °C.

Regarding `COC(=O)Nc1ccccc1CS(=O)c1ncc(C(F)(F)F)cc1Cl` (stereo not given), the melting point lay within 160 to 162 °C.

In turn, `Cn1c(COc2ccc(CC3SC(=O)NC3=O)cc2)nc2cc(Cl)cnc21` (stereo not given) had a melting point of 203 to 205 °C.

As to `CC1(C)CCOc2ccc(C(=O)c3ccc(C(=O)O)cc3)cc21`, the melting point stood at 199 °C.

As to `CCOC(=O)N1CCN(C2=C(Cl)C(=O)c3nsnc3C2=O)CC1`, the melting point is 152 to 154 °C.

In turn, `COC(=O)C1Oc2ccccc2Cc2ccc(OC)cc2O1` (stereo not given) gave a melting point of 93 to 95 °C.

Turning to `CC1=C(C(=O)OC(C)C)C(c2cccc([N+](=O)[O-])c2)N(C(=O)Oc2ccc([N+](=O)[O-])cc2)C(=O)N1` (stereo not given), the melting point fell in the range of 138 to 140 °C.

In turn, `O=C(Nc1ccc2c(c1)CCSCC2)OCc1ccccc1` displayed a melting point of 118 to 120 °C.

In turn, `CS(=O)CC(=N)c1ccccc1O` (stereo not given) registered a melting point of 194 to 195 °C.

Take `Cc1cc2c(cc1C)CC(C)NC(=O)C2` (stereo not given): the melting point was in the range of 226 to 227 °C.

For `Cc1nc(-c2ccccc2)cc(-c2cccc([N+](=O)[O-])c2)c1C(=O)NCCN1CCOCC1`, the melting point fell in the range of 141 to 142 °C.

The compound `CC(C)Oc1c(Br)csc1C(=O)Nc1nnn[nH]1` showed a melting point of 193 to 194 °C.

For `O=C1NCCSC1Cc1ccc(OCc2ccccc2)cc1` (stereo not given), the melting point fell in the range of 126 to 128 °C.

Turning to `Nc1cc(OCCO)nc(N)n1`, the melting point turned out to be 190 °C.

In turn, `COC(=O)c1ccc(-c2nc(-c3cc(C(F)(F)F)cc(C(F)(F)F)c3)co2)cc1` showed a melting point of 180 to 181 °C.

In turn, `O=[N+]([O-])c1c(Br)nn(CCO)c1Br` had a melting point of 103 to 105 °C.

In turn, `COC(=O)C(=O)c1ccc(OCCOc2ccc(Oc3ccccc3)cc2)cc1` returned a melting point of 97 to 98 °C.

Turning to `CN1CC=C(c2c[nH]c3ccc(NC(=S)NC(=O)c4ccccc4)cc23)CC1`, the melting point fell in the range of 182 to 184 °C.

`N#Cc1ccc(-c2ncccc2O)cc1` had a melting point of 245 to 246 °C.

Take `N#Cc1cncc(-c2ccc(OC[C@@H](N)Cc3ccccc3)cc2)c1Nc1cccc2[nH]ccc12`: the melting point is 83 to 85 °C.

`O=C(c1cccs1)c1cnn2c(-c3cccc(NCCc4ccccc4)c3)ccnc12` registered a melting point of 118 to 120 °C.

In turn, `c1ccc2[nH]c3c4ccccc4nc-3cc2c1` gave a melting point of 249 to 251 °C.

`C[C@@H]1C(=O)c2ccccc2O[C@H]1c1ccccc1` (relative stereo): the melting point lay in the range of 99 to 100 °C.

As for `CCCCNC(=S)c1ccc2c(c1)N(C(C)CN(C)C)c1ccccc1S2` (racemic), the melting point stood at 154 °C.

Take `CCCCCCCCCCCCCCCCCCOc1cc(N)cc(OC(C)=O)c1`: the melting point lay in the range of 73 to 74 °C.

As to `O=C(O)C1C(C=C(Cl)Cl)C12CCC2` (stereo not given), the melting point lay in the range of 122 to 128 °C.

In turn, `CC1=C(c2ccccc2)C(=O)c2ccccc2C1=O` showed a melting point of 235 to 236 °C.

Take `CN(C)C(=O)ON=C1SC(=C(C#N)C#N)SC1(C)C`: the melting point lay in the range of 175 to 177 °C.

Consider `Cc1ccc(NC2=C(Cl)C(=O)c3ccccc3C2=O)nc1`, for which the melting point is 260 to 261 °C.

Regarding `COc1ccccc1N1CCN(C(=O)Nc2nc(C)c(C)nc2OC)CC1`, the melting point fell in the range of 184 to 185 °C.

`CNc1nc2ccc(CCc3ccccn3)cc2s1` returned a melting point of 118 to 120 °C.

`COc1cn(-c2cccc(N3CCOCC3)c2F)nc(-c2ccnn2-c2ccccc2)c1=O`: the melting point was 187 to 189 °C.
